According to ChEMBL document CHEMBL1141033, “First-in-class pan caspase inhibitor developed for the treatment of liver disease” (J Med Chem, 2005):
pIC50: −log10 of the molar value.

Tests used:
Caspase-1 (Mus musculus) = target: T1, Caspase-1 (Mus musculus) (UniProt P29452); assay: Inhibitory activity against murine Caspase-1
T1 sequence (whole entry): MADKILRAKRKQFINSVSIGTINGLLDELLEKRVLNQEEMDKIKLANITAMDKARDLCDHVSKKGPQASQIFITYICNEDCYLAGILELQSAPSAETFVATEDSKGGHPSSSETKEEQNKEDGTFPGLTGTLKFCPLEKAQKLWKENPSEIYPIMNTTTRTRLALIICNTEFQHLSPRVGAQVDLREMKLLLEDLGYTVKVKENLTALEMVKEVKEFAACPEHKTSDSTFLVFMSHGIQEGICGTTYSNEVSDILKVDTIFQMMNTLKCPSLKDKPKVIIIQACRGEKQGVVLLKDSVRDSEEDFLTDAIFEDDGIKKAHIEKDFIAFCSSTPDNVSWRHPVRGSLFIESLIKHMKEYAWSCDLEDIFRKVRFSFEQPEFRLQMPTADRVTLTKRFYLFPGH

Jurkat = assay: Inhibitory concentration against JFas cells; format: functional, cell-based; details: Homo sapiens
THP-1 = assay: Inhibitory concentration against THP-1 cells; format: functional, cell-based; details: Homo sapiens
Caspase-3 (Homo sapiens) = target: T2, Caspase-3 (Homo sapiens) (UniProt P42574); assay: Inhibitory activity against Caspase-3
T2 sequence (whole entry): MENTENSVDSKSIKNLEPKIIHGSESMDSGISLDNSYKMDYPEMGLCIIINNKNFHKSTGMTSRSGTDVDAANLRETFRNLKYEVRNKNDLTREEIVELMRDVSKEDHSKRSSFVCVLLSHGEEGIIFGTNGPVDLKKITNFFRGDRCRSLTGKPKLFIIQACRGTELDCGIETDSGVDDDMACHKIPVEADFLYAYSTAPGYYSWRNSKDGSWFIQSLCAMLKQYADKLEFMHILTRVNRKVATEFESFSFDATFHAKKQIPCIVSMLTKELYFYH

Caspase-6 (Homo sapiens) = target: T3, Caspase-6 (Homo sapiens) (UniProt P55212); assay: Inhibitory activity against Caspase-6
T3 sequence (whole entry): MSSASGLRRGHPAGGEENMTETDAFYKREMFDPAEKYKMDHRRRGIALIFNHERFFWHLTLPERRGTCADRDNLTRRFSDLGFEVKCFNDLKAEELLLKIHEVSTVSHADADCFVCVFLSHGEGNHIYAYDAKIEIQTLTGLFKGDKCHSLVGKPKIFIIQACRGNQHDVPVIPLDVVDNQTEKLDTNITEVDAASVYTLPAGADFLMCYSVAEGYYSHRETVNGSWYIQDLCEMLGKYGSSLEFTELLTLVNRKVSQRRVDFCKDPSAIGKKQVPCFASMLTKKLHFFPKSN

Caspase-8 (Homo sapiens) = Caspase-8 (Homo sapiens) (UniProt Q14790); assay: Inhibitory activity against Caspase-8
Mus musculus [1] = assay: Effective dose required for pancaspase inhibition in a-Fas liver upon i.p. administration; details: ip
Mus musculus [2] = assay: Effective dose required for pancaspase inhibition in a-Fas liver upon i.p. administration; range = 0.06-0.12; details: ip
Mus musculus [3] = assay: Effective dose required for pancaspase inhibition in a-Fas liver upon i.p. administration; range = 0.02-0.11; details: ip

Sequence of Caspase-8 (Homo sapiens) (Q14790 217-374 limits assumed): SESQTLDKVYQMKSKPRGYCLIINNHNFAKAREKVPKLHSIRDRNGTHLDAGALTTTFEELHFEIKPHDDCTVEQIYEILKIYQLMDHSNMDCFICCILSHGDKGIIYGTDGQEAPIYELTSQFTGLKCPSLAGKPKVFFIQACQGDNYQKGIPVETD
Sequence of Caspase-8 (Homo sapiens) (Q14790 385-479 limits assumed): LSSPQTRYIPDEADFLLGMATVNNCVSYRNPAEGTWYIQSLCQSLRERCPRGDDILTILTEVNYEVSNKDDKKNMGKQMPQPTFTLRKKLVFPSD

Row | SMILES | k3/Ki (Caspase-1 (Mus musculus)) [M⁻¹ s⁻¹] | pIC50 (Jurkat) | pIC50 (THP-1) | k3/Ki (Caspase-3 (Homo sapiens)) [M⁻¹ s⁻¹] | k3/Ki (Caspase-6 (Homo sapiens)) [M⁻¹ s⁻¹] | k3/Ki (Caspase-8 (Homo sapiens)) [M⁻¹ s⁻¹] | ED50 (Mus musculus [1]) [mg/kg] | ED50 (Mus musculus [2]) [mg/kg] | ED50 (Mus musculus [3]) [mg/kg]
1 | C[C@H](NC(=O)C(=O)NC1CCCCC1)C(=O)N[C@@H](CC(=O)O)C(=O)COc1c(F)c(F)cc(F)c1F | 390000 | 6.82 | 6.30 | 21000 | 268 | 2800 | – | – | –
2 | C[C@H](NC(=O)C(=O)Nc1ccccc1C(C)(C)C)C(=O)N[C@@H](CC(=O)O)C(=O)COP(=O)(c1ccccc1)c1ccccc1 | 2.16e+06 | 7.09 | 5.04 | 99100 | 52100 | 2.01e+06 | 0.14 | – | –
3 | C[C@H](NC(=O)C(=O)Nc1cccc2ccccc12)C(=O)N[C@@H](CC(=O)O)C(=O)COc1c(F)c(F)cc(F)c1F | 1.7e+06 | 7.07 | 7.22 | 57000 | 18500 | 460000 | – | – | –
4 | C[C@H](NC(=O)C(=O)Nc1ccccc1C(F)(F)F)C(=O)N[C@@H](CC(=O)O)C(=O)COc1c(F)c(F)cc(F)c1F | 9.95e+06 | 7.21 | 6.72 | 309000 | 45600 | 332000 | – | – | –
5 | C[C@H](NC(=O)C(=O)Nc1cc(C(C)(C)C)ccc1C(C)(C)C)C(=O)N[C@@H](CC(=O)O)C(=O)COP(=O)(c1ccccc1)c1ccccc1 | 2.71e+06 | 6.96 | 5.23 | 18300 | 7640 | 970000 | 0.5 | – | –
6 | C[C@H](NC(=O)C(=O)Nc1ccccc1)C(=O)N[C@@H](CC(=O)O)C(=O)COc1c(F)c(F)cc(F)c1F | 127000 | 6.17 | 6.85 | 25400 | 31700 | 65300 | – | – | –
7 | C[C@H](NC(=O)C(=O)Nc1ccccc1-c1ccccc1)C(=O)N[C@@H](CC(=O)O)C(=O)COC(=O)c1c(Cl)cccc1Cl | 7.28e+06 | 6.41 | 5.36 | 29000 | 61000 | 342000 | – | – | –
8 | C[C@H](NC(=O)C(=O)Nc1ccc2c(c1)CCC2)C(=O)N[C@@H](CC(=O)O)C(=O)COc1c(F)c(F)cc(F)c1F | 270000 | 6.70 | 6.92 | 42000 | 31900 | 204000 | – | – | –
9 | C[C@H](NC(=O)C(=O)Nc1ccccc1Oc1ccccc1)C(=O)N[C@@H](CC(=O)O)C(=O)COc1c(F)c(F)cc(F)c1F | 960000 | 6.28 | 6.10 | 51000 | 5900 | 154000 | – | – | –
10 | Cc1c(C(=O)N[C@H](C(=O)NC(CC(=O)O)C(=O)CF)C(C)C)n(C)c2ccccc12 (some centres not stated) | 10100 | 5.89 | 5.00 | 19000 | 98000 | 34400 | – | – | –
11 | C[C@H](NC(=O)C(=O)Nc1ccccn1)C(=O)N[C@@H](CC(=O)O)C(=O)COc1c(F)c(F)cc(F)c1F | 468000 | 5.98 | 6.70 | 44000 | 23700 | 201000 | – | – | –
12 | C[C@H](NC(=O)C(=O)Nc1ccccc1-c1ccc[nH]1)C(=O)N[C@@H](CC(=O)O)C(=O)COc1c(F)c(F)cc(F)c1F | 1.52e+06 | 7.25 | < 4.49 | 12000 | 7750 | 1.2e+06 | – | – | –
13 | C[C@H](NC(=O)C(=O)Nc1ccccc1Cc1ccccc1)C(=O)N[C@@H](CC(=O)O)C(=O)COc1c(F)c(F)cc(F)c1F | 1.97e+06 | 8.00 | 6.27 | 44400 | 33600 | 617000 | – | – | –
14 | O=C(O)CC(NC(=O)[C@@H]1Cc2cccc3c2N1C(=O)[C@@H](NC(=O)OCc1ccccc1)CC3)C(=O)CF (some centres not stated) | 1.2e+07 | 6.29 | 6.52 | 960000 | 25000 | 98000 | – | – | –
15 | C[C@H](NC(=O)C(=O)Nc1ccccc1F)C(=O)N[C@@H](CC(=O)O)C(=O)COc1c(F)c(F)cc(F)c1F | 1.14e+06 | 6.80 | 6.80 | 70000 | 19800 | 114000 | – | – | –
16 | C[C@H](NC(=O)C(=O)Nc1ccccc1Cl)C(=O)N[C@@H](CC(=O)O)C(=O)COC(=O)c1c(Cl)cccc1Cl | 8.31e+06 | 5.93 | 6.49 | 256000 | 44000 | 109 | – | – | –
17 | C[C@H](NC(=O)C(=O)Nc1cc(C(C)(C)C)ccc1C(C)(C)C)C(=O)N[C@@H](CC(=O)O)C(=O)COC(=O)c1c(Cl)cccc1Cl | 4.02e+06 | 5.86 | 5.50 | 30000 | 6400 | 68 | – | – | –
18 | C[C@H](NC(=O)C(=O)Nc1ccccc1C(C)(C)C)C(=O)N[C@@H](CC(=O)O)C(=O)COC(=O)c1c(Cl)cccc1Cl | 8.33e+06 | 6.84 | 4.93 | 236000 | 105000 | 4300 | 45.8 | – | –
19 | C[C@H](NC(=O)C(=O)Nc1ccccc1Br)C(=O)N[C@@H](CC(=O)O)C(=O)COc1c(F)c(F)cc(F)c1F | 1.34e+06 | 7.12 | 7.30 | 186000 | 25200 | 542000 | – | – | –
20 | C[C@H](NC(=O)C(=O)Nc1ccccc1C(C)(C)C)C(=O)N[C@@H](CC(=O)O)C(=O)COc1c(F)c(F)cc(F)c1F [EMRICASAN] | 689000 | 7.60 | 6.57 | 75700 | 58700 | 2.94e+06 | – | 0.08 | –
21 | C[C@H](NC(=O)C(=O)NCc1ccccc1)C(=O)N[C@@H](CC(=O)O)C(=O)COc1c(F)c(F)cc(F)c1F | 674000 | 6.52 | 6.80 | 35500 | 37100 | 32500 | – | – | –
22 | C[C@H](NC(=O)C(=O)Nc1cc(C(C)(C)C)ccc1C(C)(C)C)C(=O)N[C@@H](CC(=O)O)C(=O)COc1c(F)c(F)cc(F)c1F | 1.63e+07 | 7.21 | 5.74 | 38200 | 15400 | 365000 | – | – | 0.05
